The values below come from patent US20250230138A1, “COMPOUNDS HAVING A T-STRUCTURE FORMED BY AT LEAST FOUR CYCLES FOR USE IN THE TREATMENT OF CANCER AND OTHER INDICATIONS” (TheRas, Inc., priority 2022, published 2025).

Data set [1] in a line: Blood glucose after an oral glucose tolerance test in fasted male mice (FIG. 3C). It is filed as in vivo. To be noted: single dose. The method, then: (§1) (One-way ANOVA with Dunnett's test vs. vehicle; *=p<0.01; **=p<0.0001). From left to right along x-axis in FIG. 3B: vehicle, 30 mg/kg BBO, 100 mg/kg BBO, 300 mg/kg BBO, 50 mg/kg alpelisib. […] (One-way ANOVA with Tukey's multiple comparisons test vs all other groups: *p<0.0001) (IV=intravenous administration; PO=per os or oral administration; ng/mL=nanograms per milliliters; mg/kg=milligrams per kilogram; mg/dL=milligrams per deciliter; min=minutes; CDX=cell line derived xenograft; QD=quaque die or once daily, PK=pharmacokinetics)

Data set [2] can be described thus: Insulin levels in fed male mice (FIG. 3D). As to conditions: single oral dose 50 mg/kg, 240 minutes after administration. It is filed as in vivo. The method, then:
as §1

The test system of the next data set is pAKT in BT474 cells. The data set can be described thus: Cell-based pAKT HTRF assay in BT474 cells. To be noted: Homo sapiens, BT-474; BT474 cell line; read-out: pAKT (IC50). The method, boiled down: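 The HTRF signal (excitation 320 nm, emission 615 nm) came from d2/Eu Cryptate antibodies added to lysates and incubated 4–24 h at room temperature. Those lysates were taken from cells treated for 4 hr with compound, top concentration 3 μM, in 0.25% DMSO.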
For orientation: In TR-FRET formats the signal depends on donor and acceptor labels being close together.

For a further data set, the system named is BT474 cell line. The data set can be described thus: Cell viability in BT474 cell line. Type of data set: cell-based. To be noted: Homo sapiens, BT-474. The source says: Table 8 compares the pAKT IC50 and cell viability for Compound 58, a PI3Kα breaker, and the PI3Kα inhibitor alpelisib in the breast cancer estrogen receptor positive (ER+) BT474 cell line, which harbors a HER2 amplification and PIK3CA linker domain K111N mutation. […] Importantly, the potency on pAKT translates well into a loss in cellular viability.

Data set [3] relates to pAKT (Ser473) in BT474 CDX tumors. The data set can be described thus: Pharmacodynamic activity (tumor pAKT) in BT474 cell line-derived xenograft model. Type of data set: in vivo, mice. To be noted: NOD/SCID mice, 4 hours after one oral dose of 50 mg/kg. On the procedure: An in vivo study was conducted to evaluate the pharmacodynamic activity of Compound 58 in the breast cancer estrogen receptor positive (ER+) BT474 cell line-derived xenograft (CDX) model, which harbors a HER2 amplification and PIK3CA linker domain K111N mutation (FIG. 3B). NOD/SCID mice were implanted subcutaneously with BT474 human tumor cells and were injected subcutaneously with estradiol benzoate twice a week to support tumor growth. When tumors reached a mean size of 286 mm^3, mice were randomized into treatment groups (4 mice per group) and administered one oral dose of vehicle, 30 mg/kg Compound 58, 100 mg/kg Compound 58, 300 mg/kg Compound 58, or 50 mg/kg alpelisib. Alpelisib is a PI3Kα kinase domain inhibitor and was included as a positive control. Whole blood and tumors were collected 4 hours post the dose. Blood was processed to plasma and compound concentrations were determined with LC-MS/MS. Tumors were processed into lysates and pAKT levels were measured using the Meso Scale Diagnostics (MSD) multi-spot pAKT (Ser473)/total AKT assay whole cell lysate kit.

A short description of data set [4]: Oral glucose tolerance test in fasted mice. As to conditions: fasted male C57/BL6J mice, one oral dose 50 mg/kg, 2 g/kg glucose 1 h later, 15-120 minutes. It is filed as in vivo. The method, then:
Two in vivo studies were performed to determine whether Compound 58 administration induces hyperglycemia and hyperinsulinemia in mice like the PI3Kα kinase domain inhibitor alpelisib (FIGS. 3C and 3D). In the first study, an oral glucose tolerance test was performed in fasted mice following the administration of compounds to determine if Compound 58 induces hyperglycemia (FIG. 3C). Male C57/BL6J mice were fasted overnight for 16 hours and approximately 5 μL of whole blood was collected via tail snip to measure fasted blood glucose levels using a glucometer. Mice were randomized into three groups (8 mice per group) based on blood glucose levels and then administered one oral dose of vehicle, 50 mg/kg alpelisib, or 300 mg/kg Compound 58. One hour later, blood was collected for a glucose measurement and then a single oral dose of a 2 g/kg glucose solution was administered. Blood glucose measurements were performed at 15, 30, 60, 90, and 120 minutes after the administration of the glucose solution.

Data set [5] in a line: Serum insulin levels in fed mice. It is filed as in vivo. To be noted: fed male C57/BL6J mice, 240 minutes after one oral dose 50 mg/kg. The method, then:
In the second study, serum insulin levels were measured in fed mice following administration of compounds to determine if Compound 58 induces hyperinsulinemia like the PI3Kα kinase domain inhibitor alpelisib (FIG. 3D). Approximately 5 μL of whole blood was collected via tail snip from male C57/BL6J mice and used to measure fed blood glucose levels using a glucometer. Mice were randomized into three groups (8 mice per group) based on blood glucose levels and then administered one oral dose of vehicle, 50 mg/kg alpelisib, or 300 mg/kg Compound 58. 240 minutes later, whole blood was collected and processed to serum and insulin levels were measured using an ELISA.

For data set [6] the following is noted: Phase III clinical trial; cited from earlier work.

Structures are written as SMILES.

For orientation: IC50 means the concentration that gives 50% inhibition.

`Cc1nc(NC(=O)N2CCC[C@H]2C(N)=O)sc1-c1ccnc(C(C)(C)C(F)(F)F)c1` [alpelisib, reference compound]: the “blood glucose levels (hyperglycemia)” value in data set [1] is recorded as “Hyperglycemia is observed”. For the same compound, the “insulin levels (hyperinsulinemia)” value in data set [2] is “Hyperinsulinemia is observed”. For the same compound, the results for the 50% inhibitory concentration (IC50) with pAKT in BT474 cells and with BT474 cell line were 0.169 µM and 0.744 µM, respectively. In data set [3], this compound gave a pAKT inhibited of 97%. Further, the “Blood glucose levels after glucose dose (oral glucose tolerance test)” value in data set [4] was “significantly elevated”. Besides, the Serum insulin levels result in data set [5] is given as “significantly elevated”. Further, the “patients in whom hyperglycemia was observed” value in data set [6] is listed as 65%.
